# Tests used:
# [1] = tested on: primary screen strain (yeast with hRpn11, UBP6 deleted); test: DMSO tolerance of the primary screen yeast strain, growth in microtiter plates; type: cell-based, Saccharomyces cerevisiae; conditions: primary screen strain (FIG. 4A); concentrations of DMSO up to 1%; cell density monitored over 24 hours; sextuplicate
# Description: (§1) In baker's yeast (S. cerevisiae), deletion of the endogenous yeast Rpn11 gene is lethal, but inhibition of Rpn11 deubiquitinating activity is not. Inhibition of Rpn11 activity is lethal only when a second deubiquitinase, UBP6, is deleted (FIG. 2A). Importantly, this synthetic lethal relationship is maintained in yeast harboring hRpn11 (FIG. 3). Thus, a selective inhibitor of human Rpn11 would be lethal in the hRpn11 strain lacking UBP6 (primary screen strain), but nontoxic in a strain containing UBP6 and harboring inactivating point mutations in hRpn11 (counterscreening strain) (FIG. 2B). By measuring cell growth in the presence of potential inhibitors using any commercially available plate reader, a high throughput cell-based screen for compounds selectively inhibiting hRpn11 can be enacted.
# (§2) Many high throughput screens include a library of chemical compounds having different solubility in different solvents. A common solvent used to solve this issue is dimethyl sulfoxide (“DMSO”). However, DMSO can be toxic to biological cells. Thus, it is advantageous if the biological cell is resistant to levels of DMSO which are used to dissolve compounds in a library. […]
# (§3) In a fourth example, yeast strains were evaluated for tolerance of a commonly used solvent in high throughput screens. […] Cell density was monitored over 24 hours as an indicator of cell growth.
# [2] = tested on: counterscreen strain (yeast with UBP6 intact); test: DMSO tolerance of the counterscreen yeast strain, growth in microtiter plates; type: cell-based, Saccharomyces cerevisiae; conditions: counterscreen strain (FIG. 4B); concentrations of DMSO up to 1%; cell density monitored over 24 hours; sextuplicate
# Description: as §1, §2, §3
smiles,measurement,setting,value
"C[S+](C)[O-] [DMSO, dimethylsulfoxide]","differences in growth rate, time to saturation, or saturation cell density",[1],No statistical differences
same,"differences in growth rate, time to saturation, or saturation cell density",[2],No statistical differences

# From US10676519B2, “Chimeric proteins and their use in identifying anti-deubiquitinase compounds” (The Florida State University Research Foundation, Inc., priority 2017, dated 2020)
